Melting point data for 92 molecules are collected here from a melting point compilation (Tetko et al.; mined from patent text by program, amines drawn as free bases though some values may be those of a salt).

The structures appear in SMILES notation.

The molecule `CNS(=O)(=O)OCCOc1ccc(-n2ccnc2)cc1` came in with a melting point of 85 to 88 °C.

In turn, `CNC(=O)c1ccc(C=CC(=O)NCC(=O)N(C)c2ccc(C)c(COc3cccc4c3nc(SC)n4C)c2C)cc1` came in with a melting point of 224 to 225 °C.

Molecule `Cc1cccc(CNC(=O)CC#N)c1` gave a melting point of 110 to 112 °C. On to `CCN(CC)C(=O)C(Cl)=C(Cl)C(=O)O`, for which the melting point lay in the range of 154 to 155 °C. `CC1NC(=O)OC1c1ccc(C(F)(F)F)cc1` (configuration not stated) registered a melting point of 158 to 159 °C. With `N#Cc1ccc([C@H]2CC[C@H](O)CC2)cc1`, the melting point was 120 to 122 °C. For `CC(=O)Nc1ccc(C(=O)N(C)Cc2cccc(-c3ccc(CC4SC(=O)NC4=O)cc3)c2)cc1` (configuration not stated), the melting point is 207 °C. Take `CCC(C(=O)N(C)C)n1ccc(-c2ccccc2)n1` (configuration not stated): the melting point is 101 to 103 °C.

Regarding `Nc1cc(C(=O)O)ccc1-c1nnc(-c2ccc(C(F)(F)F)cc2)o1`, the melting point was > 300 °C. The molecule `CCOc1cc(OCC)c2c(C)c(CCO)c(=O)oc2c1` showed a melting point of 117 to 119 °C. The value for `O=c1c2ccccc2ccc2ccc(SC(F)(F)F)cc12` was 87 to 88 °C.

`O=S(c1ccc(C=Cc2nc(CCl)cs2)cc1)C(F)(F)F` (configuration not stated): the melting point fell in the range of 98 to 99 °C. `COOc1ccc(S(=O)(=O)c2cnc(C)nc2Cc2c(C)cc(C)cc2C)cc1` had a melting point of 150 to 152 °C. The value for `O=C(Nc1cccc2c(=O)cc(-c3nnnn3O)oc12)c1ccc(OCCCCc2ccccc2)cc1` was 238 to 240 °C; that for `Nc1ccc2c(c1Br)COC2=O` was 176 to 180 °C.

`Cc1n[nH]c(=O)c(-c2c(F)cc(F)cc2F)c1-c1cccs1` returned a melting point of 249 to 251 °C.

On to `COC(=O)c1[nH]c2cc(Cl)ccc2c1-c1ccc(F)cc1`, for which the melting point fell in the range of 172 to 183 °C.

For `CCN(CC)CCN(CCN1CCCCC1)c1ccc(-c2nc3ccc(Cl)cc3[nH]2)cc1`, the melting point came to 156 °C.

Consider `N#Cc1cccc(-c2nc(-c3cccnc3)no2)n1`, for which the melting point lay in the range of 201 to 203 °C. For `Nc1ncnc2c1ncn2C[C@@H]1O[C@H](CO)[C@@H](O)[C@@H]1O` the value was 107 to 109 °C; for `O=[N+]([O-])c1cc(Cl)c(CCN2CCN(c3nsc4ccccc34)CC2)cc1Cl`, 153 to 157 °C; for `CNc1ccc2[nH]ccc2c1`, 113 to 114 °C. Molecule `CC(=O)Nc1ccc(C(C)=C(Cl)Cl)cc1` displayed a melting point of 164 to 166 °C. In turn, `Cc1noc(NS(=O)(=O)c2cccc3cccnc23)c1C` showed a melting point of 176 to 178 °C. The value for `CN(C)C(=C[N+](=O)[O-])NCc1ccc(Cl)nc1` was 124 to 125 °C; that for `CSc1cnc2cc(-c3ccccc3)sc2c1O` was > 325 °C. `NNC(=O)CSc1nc(Cl)cc(NCc2ccc(Cl)cc2)n1` had a melting point of 178 to 182 °C. In the case of `COc1cccc(C=O)c1Oc1ccc([N+](=O)[O-])cc1`, the melting point lay within 130 to 131 °C.

Take `CCOC(=O)COc1cc2c(c(Cl)c1Cl)C(=O)C(CC)=C2`: the melting point lay in the range of 141 to 143 °C.

`NC(=O)c1c(Cl)c(-c2ccccc2)n2c1CN(S(=O)(=O)Nc1ccc(F)cc1)CC2` registered a melting point of 183 to 185 °C. On to `CC(=O)Nc1ccc(-c2cc(-c3nc4ccccc4c(=O)n3-c3ccccc3)sc2N2CCOCC2)cc1`, for which the melting point is > 275 °C.

Consider `CC(CCC(O)C(C)(C)O)C1CCC2C3CC=C4CC(O)CCC4(C)C3CCC12C` (configuration not stated), for which the melting point lay in the range of 195 to 199 °C. In turn, `COC(=O)C=Cc1ccc(N2CCN(CCC3CCN(C(=O)OC(C)(C)C)CC3)C2=O)cc1` showed a melting point of 148 to 149 °C.

`CCOC(=O)CCCOc1ccc(C(C)=O)cc1` had a melting point of 59 to 61 °C. `CCOC(=O)c1c(O)c2cccnc2n(Cc2ccc(OC)cc2)c1=O`: the melting point was found to be 153 °C. For `O=[N+]([O-])c1ccc2nc(Cl)c(Cc3ccccc3)cc2c1` the value was 159 to 161 °C; for `CC(=O)Oc1cc(C)cc(C(=O)O)c1C`, 153 to 154 °C; for `NC(=O)c1nccn1C1Cc2c(cccc2-c2ccccc2)C1=O` (configuration not stated), 196 °C. Regarding `Cc1cccc2nc(Cn3cnc4c(N)ncnc43)n(-c3ccccc3C(C)C)c(=O)c12`, the melting point is 258 °C. As to `O=C(c1ccc2nonc2c1)N1CC2CCC1CC2`, the melting point lay within 138 to 139 °C. `CCn1cc(C(=O)O)c(=O)c2cc(F)c(N3CCCC3)nc21` came in with a melting point of 299 to 300 °C. The value for `COc1cc(C(=O)CCc2ccccc2)c2c(c1OC)C(=O)CC2` was 144 to 146 °C; that for `BrCc1ccc(-c2ccc3c(c2)OCO3)cc1` was 78 to 81 °C; that for `CCOc1cnccc1-c1nc2n(C3CCCC3)[nH]c(CC)c-2c(=O)n1` was 179 to 180 °C. For the molecule `COC(=O)C(O)CCNc1ncc(N)cc1N` (configuration not stated), the melting point fell in the range of 229 to 230 °C. The molecule `Nc1cccc2c1CN(C(CCC(=O)O)C(=O)O)C2=O` (configuration not stated) had a melting point of 183 to 185 °C. `C=CCC(CC)(CC=C)C(=O)O[C@H]1C[C@H](O)C=C2C=C[C@H](C)[C@H](CC[C@@H]3C[C@@H](O)CC(=O)O3)[C@H]21` displayed a melting point of 99 to 100 °C. The molecule `N#CN1CCC(c2nsc3ccccc23)CC1` displayed a melting point of 118 to 120 °C. For `Cc1oc2ccc(O)cc2c(=O)c1Cc1cccc(NS(=O)(=O)C(F)(F)F)c1` the value was 232 to 234 °C; for `N#Cc1ccc(NC(=O)CCC2CCCC(=O)O2)cc1` (configuration not stated), 145 to 148 °C. Consider `Nc1ccc(-c2ccncc2)cc1[N+](=O)[O-]`, for which the melting point lay within 234 to 238 °C.

Molecule `NCC1CCc2[nH]c3cc(Cl)c(F)cc3c2C1` (configuration not stated) returned a melting point of 180 to 181 °C.

Molecule `CCOC(=O)c1ccc(CC#N)cc1Cl` yielded a melting point of 60 °C. The value for `COC(=O)C(NS(=O)(=O)c1ccc(-c2ccc(NC(=O)c3cc4ccccc4o3)cc2)cc1)C(C)C` (configuration not stated) was 195 to 200 °C. `CC(C)OC(=O)N1CCC(c2nc3cc(-c4ccc(C(F)F)cc4)ccc3o2)CC1`: the melting point lay in the range of 151 to 154 °C. As to `O=S1(=O)NCN(C2CCCCCCC2)c2cc(Cl)ccc21`, the melting point lay within 141 to 143 °C. The value for `CC(=O)N1CCc2ccc(S(=O)(=O)C(F)(F)F)cc2C1` was 199 to 200 °C. Turning to `Clc1ccc(OCSc2ncc(Cl)cn2)cc1`, the melting point came out at 120 °C.

Regarding `O=C(NCc1cccnc1)c1sc(N2CCN(Cc3ccc(F)cc3)C2=O)nc1C(F)(F)F`, the melting point lay in the range of 161 to 162 °C.

Molecule `CC1(C)SCc2ccccc2C1N=CNC#N` (configuration not stated) yielded a melting point of 164 to 166 °C.

In turn, `Cc1cc(-c2nnc3c4ccccc4c(OCc4cn(C)cn4)nn23)no1` displayed a melting point of 208 to 209 °C. Molecule `c1cc(C2CCOCC2)ccn1` gave a melting point of 60 to 62 °C. Turning to `COc1cc(CCCCCC2OC(=O)NC2=O)ccc1OCc1nc(-c2ccccc2)oc1C` (configuration not stated), the melting point was in the range of 114 to 115 °C. In turn, `O=C1NCCC1Cc1ccc(Cl)nc1` (configuration not stated) showed a melting point of 117 to 118 °C. With `Nc1cnc(-c2ccccc2)nc1C(=O)O`, the melting point lay in the range of 199 to 202 °C. On to `Cc1ccc(NC(=O)c2ccc3ncccc3c2)cc1NC(=O)c1ccc(OCc2ccccc2)cc1`, for which the melting point fell in the range of 227 to 228 °C.

Turning to `COc1cc2c(cc1OC)CN(CCCc1ccc(NC(=O)c3cc4ccccc4cn3)cc1)CC2`, the melting point came to 146 °C.

In turn, `CSc1cncc(O)c1` had a melting point of 179 °C.

For `Cn1c(COc2nc(CCC(=O)O)oc2-c2ccccc2)nc2ccccc21`, the melting point was 222 to 224 °C. Take `COC(=O)C1=C(C#N)NC(C)=C(C(=O)OC(C)C)C1c1ccccc1[N+](=O)[O-]` (configuration not stated): the melting point worked out at 176 °C.

Consider `C=CCOC(=O)c1c(C)c(OC)cc(O[Si](C)(C)C(C)(C)C)c1C=O`, for which the melting point is 94 to 95 °C.

`N#Cc1ccc2c(c1)S(=O)(=O)c1ccccc1C2=O`: the melting point was 282 to 283 °C. In the case of `COc1cc(C)c(C(=O)c2c(OC)ccc(C(F)(F)F)c2C)c(OC)c1OC`, the melting point was 95 to 96 °C. As to `CCCCNc1ccc(-c2c(N)nc(N)nc2CC)cc1[N+](=O)[O-]`, the melting point is 252 to 254 °C. Turning to `Cn1ncc(/C=C/C(=O)Nc2ccc(Cc3nn(C)c(=O)o3)cc2)c1-c1ccc(F)cc1`, the melting point fell in the range of 200 to 201 °C. `NCCc1cn(C(c2ccccc2)(c2ccccc2)c2ccccc2)cn1` returned a melting point of 111 to 113 °C.

On to `CC(=O)Nc1cc2c(cc1Oc1ccc(F)cc1F)CCC2=O`, for which the melting point is 210 °C. Turning to `CN(C)C(=O)CCO[C@H]1CC[C@H](N(C)S(=O)(=O)c2ccc(C(F)(F)F)cc2)CC1`, the melting point came to 88 °C.

In turn, `O=[N+]([O-])c1ccccc1CN1CCC(c2cc(-c3ccc(Cl)cc3)[nH]n2)CC1` came in with a melting point of 150 to 151 °C. In turn, `CC1(c2ccc(-c3ccccc3)cc2)CC(=O)NN1` (configuration not stated) gave a melting point of 191 to 192 °C. The molecule `O=C(C#Cc1ccc(CCN2CCCC2)cc1)Nc1ccc(-c2ccccc2)cc1` yielded a melting point of 180 to 189 °C. For `O=C(O)COc1cccc(OCCC(c2ccccc2)(c2ccccc2)c2ccccc2)c1` the value was 69 to 71 °C; for `O=C1CN=C(c2ccc(O)cc2)c2cc(Cl)ccc2N1`, 271 to 272 °C; for `COC1=CCC(N)(O)C=C1` (configuration not stated), 138 to 140 °C. `COCCOc1cc(N)c(Cl)cc1C(=O)NCC12CCCN(CCC1)C2` showed a melting point of 154 to 156 °C. For `COc1cccc(OC)c1C1(O)C(=O)Nc2ccc(Cl)cc21` (configuration not stated) the value was 182 °C; for `O=c1cc(-c2ccoc2)c2ccc(O)cc2o1`, 229 to 232 °C; for `O=C(N[C@@H]1CC(=O)N(Cc2ccccc2)C1=O)OCc1ccccc1`, 143 to 144 °C. Molecule `CC(C)n1c(=O)c2c(-c3cc(C4CC4)on3)ncn2c2ccccc21` came in with a melting point of 247 to 249 °C.

In turn, `CNc1nc(-c2cccc3ccccc23)co1` registered a melting point of 164 to 166 °C. On to `Cc1nnc2c3c(c(Cl)nn12)C1CCC3CC1`, for which the melting point lay within 178 to 179 °C.

`O=C1Cc2c(cccc2OCCNCc2ccccc2)N1` showed a melting point of 145 to 146 °C.

For orientation: melting point means the temperature of the solid-liquid transition.
